Reference: PubChem BioAssay AID504857 (Southern Research Specialized Biocontainment Screening …, 2011)
The source made the active and inactive calls. The rule behind the calls is not given here.

Legend:
[1] = test system: Mycobacterium tuberculosis H37Rv growth in 7H9 media; assay: M. tuberculosis growth inhibition, dose response, H37Rv, 7H9 media, purified and synthesized compounds, set 4 (AID 504857); conditions: for IC50: measured here: M. tuberculosis growth IC50
[2] = as above; conditions: Mycobacterium tuberculosis H37Rv growth in 7H9 media; at 100 µM (top of the series)

**Q.** For `O=C(CSc1nc2c(c(=O)[nH]1)CCC2)NC1CCCCC1`, which IC90 [1] is on record?
**A.** Its IC90 is under 10 nM.

**Q.** And the IC50 [1]?
**A.** The IC50 was under 10 nM.

**Q.** What does the source list for `CC[N+](C)(CC)CCCCOc1ccc2c(c1)C(=O)c1cc(OCCCC[N+](C)(CC)CC)ccc1-2`?
**A.** IC90 [1]: 3300 nM; IC50 [1]: 2470 nM

**Q.** With `Cc1[nH]c(=S)[nH]c(=O)c1C` as the molecule, how does the growth inhibition [2] read?
**A.** Its growth inhibition is 3.68% (inactive).

**Q.** With `CCSc1nc(C)c(C)c(=O)[nH]1` as the molecule, how does the growth inhibition [2] read?
**A.** The growth inhibition was 1.25% (inactive).

**Q.** For `O=C(CSc1nc2c(c(=O)[nH]1)CCCC2)NC1CCCCC1`, which IC90 [1] is on record?
**A.** The IC90 was under 10 nM.

**Q.** What about the IC50 [1] of the same molecule?
**A.** Its IC50 is under 10 nM.

**Q.** With `CNC(=O)CSc1nc2ccccc2c(=O)[nH]1` as the molecule, how does the IC90 [1] read?
**A.** The IC90 was 89800 nM.

**Q.** And the IC50 [1]?
**A.** Its IC50 is 54800 nM.

**Q.** Which IC90 [1] does the source give for `CC1CCN(C(=O)C2CCN(c3nnc(-n4cccc4)s3)CC2)CC1` here?
**A.** Its IC90 is 4870 nM.

**Q.** And the IC50 [1]?
**A.** Its IC50 is 2790 nM.

**Q.** For `O=c1[nH]c(=S)[nH]c2ccccc12`, which growth inhibition [2] is on record?
**A.** Its growth inhibition is -2.47% (inactive).

**Q.** For `COC(=O)C(Nc1nc(SCC(=O)NC2CCCCC2)nc2ccccc12)c1ccccc1` (stereo not drawn), which growth inhibition [2] is on record?
**A.** Its growth inhibition is 0.63% (inactive).

**Q.** For `O=C(CSc1nccc(=O)[nH]1)NC1CCCCC1`, which growth inhibition [2] is on record?
**A.** Its growth inhibition is 6.38% (inactive).

**Q.** For `CC(C)CCNC(=O)CSc1nc2c(c(=O)[nH]1)CCC2`, which IC90 [1] is on record?
**A.** Its IC90 is 1850 nM.

**Q.** And the IC50 [1]?
**A.** Its IC50 is 1140 nM.

**Q.** For `Cn1c(SCC(=O)NC2CCCCC2)nc2ccccc2c1=O`, which growth inhibition [2] is on record?
**A.** Its growth inhibition is 5.15% (inactive).

**Q.** Which results are given for `CC(C)CCNC(=O)CSc1nc2ccccc2c(=O)[nH]1`?
**A.** IC90 [1]: 20 nM; IC50 [1]: < 10 nM

**Q.** For `CCOC1OC(=O)C(Cl)=C1Nc1ccccc1C` (stereo not drawn), which IC90 [1] is on record?
**A.** The IC90 was 9910 nM.

**Q.** And the IC50 [1]?
**A.** The IC50 was 3780 nM.

**Q.** With `O=C(CSc1ncccn1)NC1CCCCC1` as the molecule, how does the growth inhibition [2] read?
**A.** Its growth inhibition is -3.06% (inactive).

**Q.** For `CN(C(=O)CSc1nc2ccccc2c(=O)[nH]1)C1CCCCC1`, which growth inhibition [2] is on record?
**A.** Its growth inhibition is 4.85% (inactive).

**Q.** With `O=c1[nH]c(SCc2ccccc2Cl)nc2c1CCCC2` as the molecule, how does the growth inhibition [2] read?
**A.** Its growth inhibition is 9.36% (inactive).

**Q.** With `COC(=O)c1ccc(CNc2c(N3CCCC3)c(=O)c2=O)cc1` as the molecule, how does the growth inhibition [2] read?
**A.** The growth inhibition was 1.55% (inactive).

**Q.** Which growth inhibition [2] does the source give for `O=C(CSc1nc2ccccc2c(=O)[nH]1)N1CCOCC1` here?
**A.** The growth inhibition was 6.76% (inactive).

**Q.** For `Cc1[nH]c2ccccc2c1C(=O)COC(=O)c1ccc([N+](=O)[O-])s1`, which IC90 [1] is on record?
**A.** Its IC90 is 2930 nM.

**Q.** And the IC50 [1]?
**A.** Its IC50 is 1690 nM.

**Q.** Which IC90 [1] does the source give for `Cc1nc(SCC(=O)NCCC(C)C)[nH]c(=O)c1C` here?
**A.** The IC90 was 9970 nM.

**Q.** And the IC50 [1]?
**A.** Its IC50 is 5780 nM.

**Q.** Which results are given for `Cc1ccc(NC(=O)COC(=O)CCc2c[nH]c3ccccc23)cc1[N+](=O)[O-]`?
**A.** IC90 [1]: 4680 nM; IC50 [1]: 2550 nM

**Q.** For `Cc1ccc(NC(=O)CSc2nc3ccccc3c(=O)[nH]2)cc1Cl`, which growth inhibition [2] is on record?
**A.** Its growth inhibition is 0.04% (inactive).

**Q.** Which IC90 [1] does the source give for `Cc1cccc(/C=C/C(=O)c2ccc([N+](=O)[O-])o2)c1` here?
**A.** The IC90 was 1120 nM.

**Q.** And the IC50 [1]?
**A.** Its IC50 is 670 nM.

**Q.** For `Cc1nc(SCC(=O)NC2CCCC2)[nH]c(=O)c1C`, which IC90 [1] is on record?
**A.** The IC90 was 10900 nM.

**Q.** What about the IC50 [1] of the same molecule?
**A.** Its IC50 is 6250 nM.

**Q.** Which IC90 [1] does the source give for `O=C(CSc1nc2ccccc2c(=O)[nH]1)NCc1ccc(Cl)cc1` here?
**A.** The IC90 was 1270 nM.

**Q.** What about the IC50 [1] of the same molecule?
**A.** Its IC50 is 760 nM.

**Q.** What does the source list for `O=C(CSc1nc2ccccc2c(=O)[nH]1)NC1CCCCC1`?
**A.** IC90 [1]: 400 nM; IC50 [1]: 250 nM

**Q.** Which growth inhibition [2] does the source give for `Cc1cnc(SCC(=O)NC2CCCCC2)[nH]c1=O` here?
**A.** The growth inhibition was 4.36% (inactive).

**Q.** Which results are given for `O=C(CSc1nc2ccccc2c(=O)[nH]1)NC1CCCC1`?
**A.** IC90 [1]: 710 nM; IC50 [1]: 240 nM

**Q.** With `CCC(Sc1nc2ccccc2c(=O)[nH]1)C(=O)NC1CCCCC1` (stereo not drawn) as the molecule, how does the growth inhibition [2] read?
**A.** The growth inhibition was 0.65% (inactive).

**Q.** Which growth inhibition [2] does the source give for `Cc1c[nH]c(=S)[nH]c1=O` here?
**A.** Its growth inhibition is 2.29% (inactive).

**Q.** With `Cc1nc(SCC(=O)N(C)c2ccccc2)[nH]c(=O)c1C` as the molecule, how does the growth inhibition [2] read?
**A.** Its growth inhibition is -2.18% (inactive).

**Q.** With `Cc1ccc(C(=O)N/N=C(/CC(=O)c2cccs2)C(F)(F)F)cc1` as the molecule, how does the IC90 [1] read?
**A.** The IC90 was 2800 nM.

**Q.** And the IC50 [1]?
**A.** Its IC50 is 1230 nM.

**Q.** What does the source list for `Cc1cccc(-c2oc3ccc(-c4ccc5c(c4)OCO5)cc3c2C#Cc2cncn2C)c1`?
**A.** IC90 [1]: 3130 nM; IC50 [1]: 2600 nM

**Q.** With `Cc1cc(=O)[nH]c(=S)[nH]1` as the molecule, how does the growth inhibition [2] read?
**A.** Its growth inhibition is -3.77% (inactive).

**Q.** With `Cc1cc(C)n2nc(N)c(N=Nc3ccccc3)c2n1` as the molecule, how does the IC90 [1] read?
**A.** The IC90 was 6310 nM.

**Q.** And the IC50 [1]?
**A.** Its IC50 is 4720 nM.

**Q.** Which IC90 [1] does the source give for `COC(=O)C(C)Oc1ccc(Cc2ncc(C(F)(F)F)cc2Cl)cc1` (stereo not drawn) here?
**A.** The IC90 was 7110 nM.

**Q.** What about the IC50 [1] of the same molecule?
**A.** Its IC50 is 4400 nM.

**Q.** For `CC1CCN(C(=O)CSc2nc3ccccc3c(=O)[nH]2)CC1`, which growth inhibition [2] is on record?
**A.** The growth inhibition was 2.61% (inactive).

**Q.** With `Cc1cc(Br)ccc1NC(=O)c1cnc(N2CCN(c3ccccn3)CC2)c2ccccc12` as the molecule, how does the IC90 [1] read?
**A.** The IC90 was 35000 nM.

**Q.** And the IC50 [1]?
**A.** The IC50 was 1030 nM.

**Q.** For `CCC(Sc1nc2ccccc2c(=O)[nH]1)C(=O)Nc1cccc(OC)c1` (stereo not drawn), which growth inhibition [2] is on record?
**A.** Its growth inhibition is 18.9% (inactive).

**Q.** Which growth inhibition [2] does the source give for `COc1cccc(NC(=O)CSc2nc3c(c(=O)[nH]2)CCC3)c1` here?
**A.** The growth inhibition was -2.55% (inactive).

**Q.** With `CCC(Sc1nc2c(c(=O)[nH]1)CCC2)C(=O)Nc1cccc(OC)c1` (stereo not drawn) as the molecule, how does the growth inhibition [2] read?
**A.** The growth inhibition was -2.13% (inactive).

**Q.** With `Nc1c(C(=O)NC2CCCCC2)nsc1C(=O)OCC(=O)NC1CCCCC1` as the molecule, how does the IC50 [1] read?
**A.** The IC50 was 4420 nM.

**Q.** For `Nc1cc(=O)[nH]c(SCC(=O)NC2CCCCC2)n1`, which growth inhibition [2] is on record?
**A.** Its growth inhibition is -0.79% (inactive).

**Q.** For `COc1ccc(NC(=O)CSc2nc3ccccc3c(=O)[nH]2)cc1`, which growth inhibition [2] is on record?
**A.** The growth inhibition was 10.6% (inactive).

**Q.** Which IC90 [1] does the source give for `CCOc1ccc(-c2cc(C)[n+](CCc3ccc(OC)c(OC)c3)c(-c3ccc(OCC)cc3)c2)cc1` here?
**A.** Its IC90 is 1110 nM.

**Q.** What about the IC50 [1] of the same molecule?
**A.** The IC50 was 770 nM.

**Q.** Which growth inhibition [2] does the source give for `CC(Sc1nc2ccccc2c(=O)[nH]1)C(=O)NC1CCCCC1` (stereo not drawn) here?
**A.** Its growth inhibition is 3.48% (inactive).

**Q.** Which growth inhibition [2] does the source give for `Cc1nc(SCC(N)=O)[nH]c(=O)c1C` here?
**A.** Its growth inhibition is 3.13% (inactive).

**Q.** Which growth inhibition [2] does the source give for `Cc1nc(SCc2ccccc2Cl)[nH]c(=O)c1C` here?
**A.** The growth inhibition was -1.2% (inactive).

**Q.** Which growth inhibition [2] does the source give for `COc1cccc(NC(=O)CSc2nc3ccccc3c(=O)[nH]2)c1` here?
**A.** Its growth inhibition is 7.54% (inactive).

**Q.** For `CCOC(=O)CSc1nc(C)c(C)c(=O)[nH]1`, which growth inhibition [2] is on record?
**A.** Its growth inhibition is 7.45% (inactive).

**Q.** With `O=C(CSc1ccccn1)NC1CCCCC1` as the molecule, how does the growth inhibition [2] read?
**A.** The growth inhibition was 5.02% (inactive).

**Q.** Which growth inhibition [2] does the source give for `Cc1cc(=O)[nH]c(SCC(=O)NC2CCCCC2)n1` here?
**A.** The growth inhibition was -5.77% (inactive).

**Q.** For `CCSc1nc2ccccc2c(=O)[nH]1`, which growth inhibition [2] is on record?
**A.** Its growth inhibition is 2.57% (inactive).

**Q.** With `CC(C)NC(=O)CSc1nc2ccccc2c(=O)[nH]1` as the molecule, how does the IC90 [1] read?
**A.** The IC90 was 15200 nM.

**Q.** What about the IC50 [1] of the same molecule?
**A.** The IC50 was 10300 nM.

**Q.** What does the source list for `c1ccc(/N=C2\N=C(Nc3ccccn3)c3ccccc32)nc1`?
**A.** IC90 [1]: 1360 nM; IC50 [1]: 1030 nM

**Q.** Which growth inhibition [2] does the source give for `CN(C)C(=O)CSc1nc2ccccc2c(=O)[nH]1` here?
**A.** The growth inhibition was 10.3% (inactive).

**Q.** Which growth inhibition [2] does the source give for `CN1CCC(NC(=O)CSc2nc3ccccc3c(=O)[nH]2)CC1` here?
**A.** Its growth inhibition is 4.15% (inactive).

**Q.** Which growth inhibition [2] does the source give for `NC(=O)CSc1nc2ccccc2c(=O)[nH]1` here?
**A.** Its growth inhibition is 5.87% (inactive).
